In ChEMBL document CHEMBL1201862, “PubChem BioAssay data set” (2004):
Active and inactive are the calls of the source.

Experiments:
X-box-binding protein 1 = X-box-binding protein 1 (Homo sapiens, UniProt P17861); type: functional, Cricetulus griseus;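 also: confirmatory dose-response counter-screen serving a CHOP assay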
BJ = assay: cytotoxicity toward Ras-transformed BJeLR fibroblasts, dose response, cell-based, alamar blue fluorescence, cherrypicked samples (AID 2631); type: functional; conditions: Homo sapiens;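 also: confirmatory dose-response assay in RAS-dependent BJ fibroblasts engineered with TERT, LT and ST, with cytotoxicity read by fluorescence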
[1] = molecular target: DNA damage-inducible transcript 3 protein (Mus musculus, UniProt P35639); type: functional, Cricetulus griseus
Sequence of DNA damage-inducible transcript 3 protein (P35639 whole entry): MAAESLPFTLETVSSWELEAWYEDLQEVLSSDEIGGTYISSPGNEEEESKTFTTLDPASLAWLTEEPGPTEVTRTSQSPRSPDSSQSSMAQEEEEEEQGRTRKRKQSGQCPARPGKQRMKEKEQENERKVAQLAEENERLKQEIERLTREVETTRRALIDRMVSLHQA

HeLa = assay: Cytotoxicity counterscreen assay for transcriptional activators of heat shock protein 70 (Hsp70). [Related pubchem assays: 1203, 1252 ]; type: functional; conditions: Homo sapiens;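 also: cells exposed to compound for 16 hours before readout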
[2] = molecular target: Heat shock protein HSP 90-alpha (Homo sapiens, UniProt P07900); type: functional, organism-based
[3] = molecular target: T1, Beta-adrenergic receptor kinase 1 (Homo sapiens, UniProt P25098); assay: GRK2 inhibitors displacing RNA aptamer, dose response, biochemical, flow cytometry beads, FAM-aptamer, powder set 1 (AID 588720)
T1 sequence (P25098 whole entry): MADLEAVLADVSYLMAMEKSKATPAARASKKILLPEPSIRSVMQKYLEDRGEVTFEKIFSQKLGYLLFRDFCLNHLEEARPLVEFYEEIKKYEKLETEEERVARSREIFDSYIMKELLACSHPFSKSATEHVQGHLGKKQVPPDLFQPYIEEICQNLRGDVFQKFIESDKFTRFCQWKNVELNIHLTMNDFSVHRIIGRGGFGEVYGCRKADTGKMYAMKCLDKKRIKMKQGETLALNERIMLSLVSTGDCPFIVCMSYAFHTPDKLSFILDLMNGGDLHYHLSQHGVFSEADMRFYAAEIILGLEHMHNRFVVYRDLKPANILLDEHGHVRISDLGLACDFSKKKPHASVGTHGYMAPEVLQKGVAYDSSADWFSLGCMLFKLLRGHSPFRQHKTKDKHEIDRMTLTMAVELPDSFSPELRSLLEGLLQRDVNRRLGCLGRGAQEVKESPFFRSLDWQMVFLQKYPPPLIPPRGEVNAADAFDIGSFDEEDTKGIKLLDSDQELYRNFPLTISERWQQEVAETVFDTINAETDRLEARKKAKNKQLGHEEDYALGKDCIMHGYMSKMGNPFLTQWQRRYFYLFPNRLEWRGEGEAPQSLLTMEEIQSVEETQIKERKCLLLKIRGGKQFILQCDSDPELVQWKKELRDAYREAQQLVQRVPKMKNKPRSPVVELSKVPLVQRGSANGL

[4] = molecular target: T2, Heat shock factor protein 1 (Mus musculus, UniProt P38532); assay: inhibition of MG132-induced HSE-luciferase signal, confirmation, cell-based, NIH3T3, luminescence, dose retest (AID 2382); type: functional;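 also: NIH3T3 fibroblasts with HSF1-driven luciferase reporter stressed by proteasome inhibitor MG132; luminescence from HSF1-driven luciferase expression after 8 hours of MG132 stress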
T2 sequence (P38532 whole entry): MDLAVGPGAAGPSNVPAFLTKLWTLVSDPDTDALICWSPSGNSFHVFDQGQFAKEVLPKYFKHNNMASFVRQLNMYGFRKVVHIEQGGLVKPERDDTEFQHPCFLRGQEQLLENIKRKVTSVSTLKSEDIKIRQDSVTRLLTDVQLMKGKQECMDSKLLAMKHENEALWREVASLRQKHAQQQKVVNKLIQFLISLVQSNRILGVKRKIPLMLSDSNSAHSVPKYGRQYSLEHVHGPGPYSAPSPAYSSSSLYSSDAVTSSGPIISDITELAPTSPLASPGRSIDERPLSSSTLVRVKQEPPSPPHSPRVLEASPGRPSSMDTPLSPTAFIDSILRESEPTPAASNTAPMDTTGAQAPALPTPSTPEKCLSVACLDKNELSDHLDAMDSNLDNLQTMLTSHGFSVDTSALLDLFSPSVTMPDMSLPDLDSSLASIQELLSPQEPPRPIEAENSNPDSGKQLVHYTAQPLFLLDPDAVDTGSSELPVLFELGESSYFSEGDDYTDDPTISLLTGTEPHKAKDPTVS

[5] = molecular target: Peroxisome proliferator-activated receptor gamma/Nuclear receptor corepressor 2 (Homo sapiens, UniProt P37231+Q9Y618); assay: Counterscreen for NR2E3 inverse agonists: TR-FRET-based biochemical high throughput dose response assay to identify inverse agonists of the interaction between peroxisome proliferator-activated receptor gamma (PPARg) and nuclear receptor co-repressor 2 (NCOR2).; type: functional
Sequence of Peroxisome proliferator-activated receptor gamma/Nuclear receptor corepressor 2 (P37231 whole entry): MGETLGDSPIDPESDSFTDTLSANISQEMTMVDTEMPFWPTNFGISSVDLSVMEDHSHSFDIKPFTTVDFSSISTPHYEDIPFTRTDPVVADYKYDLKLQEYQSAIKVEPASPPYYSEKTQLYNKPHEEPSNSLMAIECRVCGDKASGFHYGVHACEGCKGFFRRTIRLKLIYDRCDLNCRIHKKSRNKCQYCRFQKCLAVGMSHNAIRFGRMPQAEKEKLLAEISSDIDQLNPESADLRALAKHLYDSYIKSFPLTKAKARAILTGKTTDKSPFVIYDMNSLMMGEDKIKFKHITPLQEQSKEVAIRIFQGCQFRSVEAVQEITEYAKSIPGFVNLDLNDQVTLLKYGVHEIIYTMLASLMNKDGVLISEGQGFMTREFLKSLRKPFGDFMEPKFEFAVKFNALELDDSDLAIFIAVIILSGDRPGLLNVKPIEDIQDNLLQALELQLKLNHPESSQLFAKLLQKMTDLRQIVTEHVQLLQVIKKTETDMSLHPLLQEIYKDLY
Sequence of Peroxisome proliferator-activated receptor gamma/Nuclear receptor corepressor 2 (Q9Y618 whole entry): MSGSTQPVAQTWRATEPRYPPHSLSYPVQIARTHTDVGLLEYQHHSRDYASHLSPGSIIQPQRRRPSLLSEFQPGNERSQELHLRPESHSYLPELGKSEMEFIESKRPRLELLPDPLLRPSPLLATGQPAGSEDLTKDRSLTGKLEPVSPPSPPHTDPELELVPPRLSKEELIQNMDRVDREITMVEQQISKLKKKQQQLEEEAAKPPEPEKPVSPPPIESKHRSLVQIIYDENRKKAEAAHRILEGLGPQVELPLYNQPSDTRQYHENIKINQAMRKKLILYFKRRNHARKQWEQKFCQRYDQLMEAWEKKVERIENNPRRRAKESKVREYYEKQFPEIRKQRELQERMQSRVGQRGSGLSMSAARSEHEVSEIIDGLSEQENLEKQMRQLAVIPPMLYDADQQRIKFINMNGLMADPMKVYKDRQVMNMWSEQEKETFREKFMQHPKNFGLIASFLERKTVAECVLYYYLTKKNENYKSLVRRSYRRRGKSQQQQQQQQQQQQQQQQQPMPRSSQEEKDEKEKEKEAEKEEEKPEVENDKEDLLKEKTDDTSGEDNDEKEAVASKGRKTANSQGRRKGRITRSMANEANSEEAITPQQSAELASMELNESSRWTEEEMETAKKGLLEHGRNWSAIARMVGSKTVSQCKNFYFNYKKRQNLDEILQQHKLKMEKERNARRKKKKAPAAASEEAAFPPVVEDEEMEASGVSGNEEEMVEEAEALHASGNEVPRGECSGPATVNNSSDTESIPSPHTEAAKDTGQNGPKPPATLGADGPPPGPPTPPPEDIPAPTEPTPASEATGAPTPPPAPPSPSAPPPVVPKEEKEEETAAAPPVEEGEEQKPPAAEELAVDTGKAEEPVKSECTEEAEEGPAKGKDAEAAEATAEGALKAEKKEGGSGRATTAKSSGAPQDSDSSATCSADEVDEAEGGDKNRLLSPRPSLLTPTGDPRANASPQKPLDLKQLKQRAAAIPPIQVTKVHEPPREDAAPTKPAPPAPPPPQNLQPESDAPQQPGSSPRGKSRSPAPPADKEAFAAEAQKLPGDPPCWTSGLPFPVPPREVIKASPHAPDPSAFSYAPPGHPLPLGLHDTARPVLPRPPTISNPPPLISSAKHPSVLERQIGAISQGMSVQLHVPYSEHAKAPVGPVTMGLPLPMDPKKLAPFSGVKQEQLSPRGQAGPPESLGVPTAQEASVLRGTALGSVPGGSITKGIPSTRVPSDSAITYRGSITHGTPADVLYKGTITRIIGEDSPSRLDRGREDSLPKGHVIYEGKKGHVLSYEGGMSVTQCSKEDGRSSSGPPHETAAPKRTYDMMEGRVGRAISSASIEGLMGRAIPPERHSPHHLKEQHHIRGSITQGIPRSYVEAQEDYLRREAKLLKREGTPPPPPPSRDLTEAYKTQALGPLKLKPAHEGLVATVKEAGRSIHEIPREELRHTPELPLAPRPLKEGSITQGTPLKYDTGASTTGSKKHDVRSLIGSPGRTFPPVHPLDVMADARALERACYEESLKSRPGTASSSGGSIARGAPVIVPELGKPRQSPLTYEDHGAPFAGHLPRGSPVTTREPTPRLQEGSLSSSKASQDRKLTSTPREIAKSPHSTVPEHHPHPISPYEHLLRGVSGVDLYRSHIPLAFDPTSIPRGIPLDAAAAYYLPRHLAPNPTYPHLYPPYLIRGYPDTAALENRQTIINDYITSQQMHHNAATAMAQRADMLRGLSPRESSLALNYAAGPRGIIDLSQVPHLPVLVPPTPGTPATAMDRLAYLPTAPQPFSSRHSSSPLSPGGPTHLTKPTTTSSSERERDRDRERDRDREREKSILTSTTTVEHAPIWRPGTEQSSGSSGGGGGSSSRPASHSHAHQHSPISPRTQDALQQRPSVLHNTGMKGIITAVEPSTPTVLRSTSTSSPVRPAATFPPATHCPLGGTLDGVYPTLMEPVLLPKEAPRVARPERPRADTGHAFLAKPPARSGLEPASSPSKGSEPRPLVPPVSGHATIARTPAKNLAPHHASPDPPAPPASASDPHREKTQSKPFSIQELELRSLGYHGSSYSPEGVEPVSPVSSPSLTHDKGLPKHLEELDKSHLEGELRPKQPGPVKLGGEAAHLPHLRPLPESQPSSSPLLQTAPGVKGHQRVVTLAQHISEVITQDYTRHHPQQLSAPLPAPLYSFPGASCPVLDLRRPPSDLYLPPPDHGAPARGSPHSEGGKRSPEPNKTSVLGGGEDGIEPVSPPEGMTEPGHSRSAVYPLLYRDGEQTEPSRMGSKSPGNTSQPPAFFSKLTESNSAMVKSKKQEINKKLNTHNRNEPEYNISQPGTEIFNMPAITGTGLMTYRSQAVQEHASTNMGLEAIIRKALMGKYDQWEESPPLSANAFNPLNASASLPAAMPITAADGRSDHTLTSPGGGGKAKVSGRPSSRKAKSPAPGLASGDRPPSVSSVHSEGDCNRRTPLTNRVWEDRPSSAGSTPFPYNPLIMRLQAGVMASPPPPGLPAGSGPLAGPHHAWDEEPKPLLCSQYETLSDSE

[6] = molecular target: Photoreceptor-specific nuclear receptor (Homo sapiens, UniProt Q9Y5X4); assay: NR2E3 inverse agonists, dose response, biochemical, TR-FRET (AID 463256); type: functional
[7] = molecular target: T1, Beta-adrenergic receptor kinase 1; assay: aptamer displacement from bead-bound GRK2 – biochemical, cherry pick 1, bead flow cytometry, dose response (AID 504500)
[8] = molecular target: T3, Carboxy-terminal domain RNA polymerase II polypeptide A small phosphatase 1 (Homo sapiens, UniProt Q9GZU7); assay: inhibitors of CTDSP1, concentration-response testing, biochemical assay, absorbance-based, actives from ultra-high-throughput screening (AID 540297); type: functional
T3 sequence (Q9GZU7 whole entry): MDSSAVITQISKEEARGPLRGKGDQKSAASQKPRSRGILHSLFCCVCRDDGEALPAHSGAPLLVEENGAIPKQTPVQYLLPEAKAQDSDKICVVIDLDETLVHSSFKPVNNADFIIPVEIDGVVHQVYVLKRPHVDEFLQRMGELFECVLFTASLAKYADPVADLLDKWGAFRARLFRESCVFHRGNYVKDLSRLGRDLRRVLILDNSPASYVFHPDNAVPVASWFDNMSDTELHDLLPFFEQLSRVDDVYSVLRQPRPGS

A-375 = assay: MITF: Counter assay: A375 proliferation Measured in Cell-Based System Using Plate Reader - 2084-03_Inhibitor_Dose_DryPowder_Activity. [Related pubchem assays (depositor defined):AID488944]; type: functional; conditions: Homo sapiens
[9] = microbe, parasite or virus in culture; type: functional; conditions: Mycobacterium tuberculosis
[10] = molecular target: Hepatocyte nuclear factor 4-alpha (Homo sapiens, UniProt P41235); type: functional, cell-based;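 also: biochemical luminescence-based dose-response counterscreen measuring inhibition of HNF4 dimerization, run alongside a screen for blockers of ABHD5–perilipin-5 interaction; split luciferase complementation of HNF4 fusion proteins in cell lysate measuring dimerization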
Beta-galactosidase = Beta-galactosidase (Escherichia coli, UniProt Q8VNN2); assay: PubChem AID 485352; type: functional
[11] = molecular target: Type-1 angiotensin II receptor (Homo sapiens, UniProt P30556); assay: AT1 receptor antagonists, dose response, selectivity assay for APJ receptor antagonist project, cell-based, uHTS hits (AID 463214); type: functional;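 also: antagonist potency against angiotensin II stimulated AT1 response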
[12] = cytotoxicity in HEK-293T NF-kB-Luc cells, dose response, cytotoxicity control for B/T-cell NF-kB inhibitor project, cell-based, uHTS hits (AID 489019); type: functional;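 also: IC50 reflects cytotoxicity as loss of cell viability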
Jurkat = assay: antigen receptor-induced NF-kB inhibitors, dose response, Jurkat, luciferase reporter, luminescence, B- and T-cell (AID 489004); type: functional, cell-based; conditions: Homo sapiens;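 also: NF-kB luciferase reporter Jurkat cells stimulated with PMA plus ionomycin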
INS1 = assay: beta cell apoptosis inhibitors, cytokine rescue, dose response, luminescence, retest (AID 449756); type: functional, cell-based; conditions: Rattus norvegicus;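 also: cell death triggered by IL-1 beta plus TNF-alpha plus IFN-gamma mixture; protective hits raise ATP signal compared with cytokine alone wells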
[13] = molecular target: T4, Sentrin-specific protease 6 (Homo sapiens, UniProt Q9GZR1); assay: SENP6 protease inhibitors, SAR follow-up, biochemical, luminescence, set 2 (AID 588598); type: functional
T4 sequence (Q9GZR1 whole entry): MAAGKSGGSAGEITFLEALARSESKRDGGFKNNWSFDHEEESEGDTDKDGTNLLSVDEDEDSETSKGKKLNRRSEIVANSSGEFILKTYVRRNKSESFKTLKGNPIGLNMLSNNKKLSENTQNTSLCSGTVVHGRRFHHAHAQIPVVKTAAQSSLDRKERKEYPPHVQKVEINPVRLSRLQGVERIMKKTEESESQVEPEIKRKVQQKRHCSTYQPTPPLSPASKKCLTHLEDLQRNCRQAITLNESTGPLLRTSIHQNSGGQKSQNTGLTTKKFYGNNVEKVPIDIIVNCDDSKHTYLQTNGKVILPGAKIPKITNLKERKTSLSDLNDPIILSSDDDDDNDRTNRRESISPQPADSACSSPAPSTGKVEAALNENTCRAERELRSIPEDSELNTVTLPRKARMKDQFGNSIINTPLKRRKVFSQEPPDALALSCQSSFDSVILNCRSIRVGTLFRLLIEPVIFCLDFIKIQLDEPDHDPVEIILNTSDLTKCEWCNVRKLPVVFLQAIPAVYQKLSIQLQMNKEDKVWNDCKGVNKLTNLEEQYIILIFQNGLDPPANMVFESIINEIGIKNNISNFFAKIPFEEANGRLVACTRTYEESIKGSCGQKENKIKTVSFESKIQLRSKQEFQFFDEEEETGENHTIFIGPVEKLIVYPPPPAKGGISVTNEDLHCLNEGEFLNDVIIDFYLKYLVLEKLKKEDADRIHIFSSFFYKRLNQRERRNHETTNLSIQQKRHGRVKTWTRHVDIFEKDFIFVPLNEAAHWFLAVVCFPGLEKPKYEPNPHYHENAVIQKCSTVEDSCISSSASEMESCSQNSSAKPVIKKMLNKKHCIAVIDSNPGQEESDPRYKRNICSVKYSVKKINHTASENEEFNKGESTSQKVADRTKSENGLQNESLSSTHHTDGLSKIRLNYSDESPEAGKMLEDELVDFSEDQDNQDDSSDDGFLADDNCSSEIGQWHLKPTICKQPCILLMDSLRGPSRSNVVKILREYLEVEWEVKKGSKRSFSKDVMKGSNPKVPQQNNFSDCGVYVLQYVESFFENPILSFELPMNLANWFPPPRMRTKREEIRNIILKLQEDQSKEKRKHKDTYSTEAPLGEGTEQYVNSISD

[14] = HEp-2 cell cytotoxicity, dose response, cytotoxicity control for RSV inhibitor project, HTS (AID 2410); type: functional; conditions: human respiratory syncytial virus
[15] = molecular target: T5, Sentrin-specific protease 7 (Homo sapiens, UniProt Q9BQF6); assay: SENP7 protease inhibitors, SAR follow-up, biochemical, luminescence, set 2 (AID 588600); type: functional
T5 sequence (Q9BQF6 whole entry): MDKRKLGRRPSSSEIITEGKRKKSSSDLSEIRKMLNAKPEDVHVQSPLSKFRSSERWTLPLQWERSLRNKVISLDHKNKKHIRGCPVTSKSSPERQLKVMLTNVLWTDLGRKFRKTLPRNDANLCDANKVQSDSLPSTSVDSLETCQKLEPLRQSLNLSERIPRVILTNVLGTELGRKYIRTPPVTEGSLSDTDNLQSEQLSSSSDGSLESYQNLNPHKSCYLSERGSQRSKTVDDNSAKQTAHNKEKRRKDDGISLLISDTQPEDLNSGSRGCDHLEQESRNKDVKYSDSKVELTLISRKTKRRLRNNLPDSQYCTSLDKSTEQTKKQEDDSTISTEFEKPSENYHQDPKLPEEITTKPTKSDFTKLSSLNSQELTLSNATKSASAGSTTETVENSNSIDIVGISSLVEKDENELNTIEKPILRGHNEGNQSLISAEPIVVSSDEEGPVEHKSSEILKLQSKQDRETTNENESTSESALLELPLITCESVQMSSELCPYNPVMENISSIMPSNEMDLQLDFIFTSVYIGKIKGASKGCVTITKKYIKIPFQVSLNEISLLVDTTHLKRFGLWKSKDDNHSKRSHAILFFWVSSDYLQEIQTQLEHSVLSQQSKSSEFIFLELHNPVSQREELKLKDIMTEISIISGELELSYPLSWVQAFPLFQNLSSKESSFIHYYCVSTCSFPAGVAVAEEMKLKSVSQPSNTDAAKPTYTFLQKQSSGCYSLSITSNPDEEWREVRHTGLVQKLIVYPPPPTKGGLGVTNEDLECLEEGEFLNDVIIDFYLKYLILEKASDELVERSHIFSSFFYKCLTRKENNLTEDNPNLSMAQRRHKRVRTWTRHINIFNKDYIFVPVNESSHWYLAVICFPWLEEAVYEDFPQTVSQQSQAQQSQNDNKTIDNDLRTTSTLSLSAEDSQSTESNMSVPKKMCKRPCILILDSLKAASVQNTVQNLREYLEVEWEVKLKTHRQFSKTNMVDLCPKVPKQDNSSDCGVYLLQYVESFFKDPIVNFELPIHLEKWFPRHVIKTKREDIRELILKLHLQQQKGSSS

[16] = Luminescence Cell-Based Dose Retest to Confirm Inhibitors of Cancer Stem Cells. [Related pubchem assays (depositor defined):AID2717, AID2721]; type: functional; conditions: Homo sapiens
[17] = molecular target: T6, Sentrin-specific protease 8 (Homo sapiens, UniProt Q96LD8); assay: SENP8 protease inhibitors, SAR follow-up, biochemical, luminescence, set 2 (AID 588601); type: functional
T6 sequence (Q96LD8 whole entry): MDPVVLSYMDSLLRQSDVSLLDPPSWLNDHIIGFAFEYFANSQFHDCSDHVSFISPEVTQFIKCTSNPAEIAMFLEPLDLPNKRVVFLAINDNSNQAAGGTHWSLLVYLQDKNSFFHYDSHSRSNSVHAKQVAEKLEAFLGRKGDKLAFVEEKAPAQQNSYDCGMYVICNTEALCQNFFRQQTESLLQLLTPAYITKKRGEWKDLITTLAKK

Melanocortin receptor 4 = Melanocortin receptor 4 (Homo sapiens, UniProt P32245); type: functional, cell-based;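 also: Cell-based assay with luminescence read-out, confirmatory dose-response testing for agonist activity of biased ligands at MC4R; human U2OS cells with tagged receptor and beta-arrestin; potency of agonists that increase receptor coupling to beta-arrestin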
Sequence of Melanocortin receptor 4 (P32245 whole entry): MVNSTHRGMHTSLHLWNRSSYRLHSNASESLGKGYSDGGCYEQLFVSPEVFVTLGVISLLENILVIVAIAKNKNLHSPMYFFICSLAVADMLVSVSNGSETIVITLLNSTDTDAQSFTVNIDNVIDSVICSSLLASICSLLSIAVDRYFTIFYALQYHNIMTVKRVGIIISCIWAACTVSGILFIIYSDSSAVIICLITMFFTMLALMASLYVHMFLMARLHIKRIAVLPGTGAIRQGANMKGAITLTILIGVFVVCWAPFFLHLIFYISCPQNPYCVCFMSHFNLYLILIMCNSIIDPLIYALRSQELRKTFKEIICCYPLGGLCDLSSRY

Caspase-3 = molecular target: T7, Caspase-3 (Homo sapiens, UniProt P42574); assay: caspase-3 inhibitors as off-family protease, SAR follow-up, selectivity assay for SENP protease inhibitor project, biochemical, luminescence, set 2 (AID 588599); type: functional
T7 sequence (P42574 whole entry): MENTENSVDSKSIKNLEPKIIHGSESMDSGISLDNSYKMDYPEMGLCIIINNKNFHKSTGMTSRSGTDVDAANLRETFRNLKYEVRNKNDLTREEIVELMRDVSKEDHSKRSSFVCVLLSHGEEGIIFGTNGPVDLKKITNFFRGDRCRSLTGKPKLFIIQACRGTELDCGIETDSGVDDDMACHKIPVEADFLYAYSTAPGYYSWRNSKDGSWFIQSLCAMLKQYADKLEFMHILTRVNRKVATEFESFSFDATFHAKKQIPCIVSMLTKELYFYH

[18] = molecular target: Neurotensin receptor type 1 (Homo sapiens, UniProt P30989); type: functional;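 also: Image-based confirmatory dose-response assay measuring agonist activity at NTR1; NTR1-expressing U2OS osteosarcoma cells imaged for beta-arrestin GFP spot formation; agonist potency where compounds increase beta-arrestin recruitment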
Sequence of Neurotensin receptor type 1 (P30989 whole entry): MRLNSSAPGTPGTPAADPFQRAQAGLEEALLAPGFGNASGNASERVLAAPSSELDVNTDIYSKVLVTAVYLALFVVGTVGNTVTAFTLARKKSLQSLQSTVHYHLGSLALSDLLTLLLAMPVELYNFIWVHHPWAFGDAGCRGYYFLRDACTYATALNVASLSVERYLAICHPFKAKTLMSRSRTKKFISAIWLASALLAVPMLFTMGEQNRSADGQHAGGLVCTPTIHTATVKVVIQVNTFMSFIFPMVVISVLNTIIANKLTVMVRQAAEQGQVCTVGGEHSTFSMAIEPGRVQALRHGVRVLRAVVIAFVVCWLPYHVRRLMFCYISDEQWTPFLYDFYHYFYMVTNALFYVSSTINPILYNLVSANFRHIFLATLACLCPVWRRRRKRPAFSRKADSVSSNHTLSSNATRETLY

[19] = molecular target: Latent membrane protein 1 (Human herpesvirus 4 (strain B95-8), UniProt P03230); assay: TES1-eGFP NF-kB reporter inhibition versus Tet-On dsRED, dose response, selectivity assay for LMP1 NF-kB inhibitor project, imaging, HEK293T, dual-color eGFP/dsRED, cherry-picks (AID 588398); type: functional, cell-based
Sequence of Latent membrane protein 1 (P03230 whole entry): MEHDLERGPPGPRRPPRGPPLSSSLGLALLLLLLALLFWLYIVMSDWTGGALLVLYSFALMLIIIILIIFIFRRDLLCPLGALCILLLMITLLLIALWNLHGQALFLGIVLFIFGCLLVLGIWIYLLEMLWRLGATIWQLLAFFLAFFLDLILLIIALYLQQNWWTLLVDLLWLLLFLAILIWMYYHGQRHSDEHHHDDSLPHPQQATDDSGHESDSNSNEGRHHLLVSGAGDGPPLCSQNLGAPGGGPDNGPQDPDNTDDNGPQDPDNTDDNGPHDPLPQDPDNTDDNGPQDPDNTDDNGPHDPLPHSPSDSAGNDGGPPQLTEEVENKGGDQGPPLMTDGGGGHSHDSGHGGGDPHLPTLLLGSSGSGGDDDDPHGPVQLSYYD

[20] = molecular target: Voltage-gated inwardly rectifying potassium channel KCNH2 (Homo sapiens, UniProt Q12809); conditions: Potency;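 also: confirmatory quantitative high-throughput screen measuring inhibition of hERG channel activity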

O=C1/C(=C/c2ccncc2)CCC/C1=C\c1ccncc1
Absolute IC50 (XBP1) (X-box-binding protein 1): 10 µM
EC50 (BJ): 0.474 µM (active)
Absolute IC50 (CHOP) [1]: 10 µM
CC50 (HeLa): > 1.22 µM (not active)
AC50 [2]: 8.7 µM (active)

O=C(CCS(=O)(=O)c1ccc(Br)s1)Nc1ccccc1Br
EC50 [3]: 20.9 µM (active)

CCc1ccccc1NC(=O)CCS(=O)(=O)c1ccc(OC)cc1
EC50 [4]: > 195 µM (not active)
IC50 [5]: 16.8 µM (not active)
IC50 [6]: 13.9 µM (not active)
EC50 [7]: 17.8 µM (inactive)
IC50 [8]: 21.1 µM (active)

COc1ccc(C)c2sc(N(CCN(C)C)C(=O)/C=C/c3cccs3)nc12
AC50 (A-375): 43.2 µM (active)
CC50 [9]: 12.7 µM (active)
IC50 [10]: 35.2 µM (inactive)

Cc1ccc(C(=O)COC(=O)CCC(=O)Nc2ccccc2Cl)cc1[N+](=O)[O-]
EC50 (Beta-galactosidase): > 40 µM (inactive)
IC50 [11]: 22.9 µM (not active)

COC1=CC(=O)[C@]2(C=C1OC)OC[C@@H]1Oc3c(ccc4c3C=CC(C)(C)O4)C(=O)[C@@H]12
IC50 [12]: 23 µM (inactive)
IC50 (Jurkat): 28.7 µM (inactive)
AC50 (INS1): 0.671 µM (active)

O=C(N/N=C/c1c[nH]c2ccccc12)C1CC1(c1ccccc1)c1ccccc1 (centres undefined)
IC50 [13]: > 99 µM (inactive)
CC50 [14]: 16 µM (active)
IC50 [15]: > 99 µM (inactive)
AC50 [16]: 4.64 µM (active)
IC50 [17]: > 99 µM (inactive)
EC50 (Melanocortin receptor 4): > 89.2 µM (inactive)
IC50 (Caspase-3): > 99 µM (inactive)
EC50 [18]: 12.3 µM (active)

CCN1C(=O)[C@@H]2[C@@H](c3ccc(-c4ccc(Cl)c(Cl)c4)cc3)N3CCC[C@@]3(C(=O)OC)[C@@H]2C1=O
AC50 [19]: 70.2 µM (active)

CC(=O)CC(C)C [METHYL ISOBUTYL KETONE]
AC50 [20]: 15.8 µM (inconclusive)
